# In patent publication US11820833B2, “Peptides that inhibit binding of EPCR to its ligand to treat inflammation” (Tel HaShomer Medical Research Infrastructure and Services …, priority 2016, dated 2023):
# Entries after “also recorded” stand apart in the source; their conditions may differ. Non-standard residues stand in square brackets, D forms with d. Residues, ends and D or L forms follow the SMILES beside them. *: point of attachment. Gla = N[C@@H](CC(C(=O)O)C(=O)O)C(=O)O; Tos = Cc1ccc(S(=O)(=O)*)cc1
# Legend:
# [1] = tested on: commercial human pool plasma; experiment: Coagulation tests (PT, APTT, TT, anti Xa, aPC-resistance) in human pool plasma
# Description: All coagulation tests as PT (Prothrombin Time), APTT (activated partial thromboplastin time), TT (Thrombin Time), anti Xa, aPC-resistance were carried out in collaboration with the routine coagulation lab in Sheba Medical Center and conducted on a commercial human pool plasma samples.
# Coagulation tests were conducted at the Sheba Medical Center (as described in details in the ‘general materials and experimental procedures’ section above) and a commercial pool human plasma was used. PEP6 was applied in various concentrations for injection in vivo and for evaluating the safety and the width of the therapeutic window for treatment.
# [2] = tested on: Long Term Potentiation (LTP), hippocampal slices; experiment: In vitro electrophysiology, Long Term Potentiation in hippocampal slices; design: species or system mice; conditions: peptides at 10 μM, HFS 100 Hz 1 second
# Description: The efficacy of the peptides was tested using in vitro electrophysiology. Here the present inventors tested whether these peptides have similar effects as aPC in enhancing Long Term Potentiation. Briefly, mice (10-12 weeks of age) were rapidly decapitated, the hippocampus was removed, and 400 μm slices were prepared using a vibroslicer. Slices were incubated for 1.5 hours in a humidified, carbogenated (5% CO2 and 95% O2) gas atmosphere at 33±1° C. and were perfused with ACSF [containing (in mm) 124 NaCl, 2 KCl, 26 NaHCO3, 1.24 KH2PO4, 2.5 CaCl2, 2 MgSO4, and 10 glucose, pH 7.4] in a standard interface chamber. Recordings were made with a glass pipette containing 0.75 m NaCl (4 MΩ) placed in the stratum radiatum CA1.
# Stimulation was evoked using a Master 8 pulse stimulator (A.M.P.I., Jerusalem, Israel) and was delivered through a bipolar nichrome electrode placed at a side of the recording electrode. LTP was induced by high-frequency stimulation (HFS) consisting of 100 pulses at twice the test intensity, delivered at a frequency of 100 Hz (100 Hz, 1 second). Before applying the tetanic stimulation, baseline values were recorded at a frequency of 0.033 Hz. Responses were digitized at 5 kHz and stored on a computer. Off-line analysis and data acquisition were performed using the LTP Program (Anderson and Collingridge, 2001). Peptides were tested at a concentration of 10 μM.
Compound,Effect in APTT (activated partial thromboplastin time) test [1],Effect in PT (Prothrombin Time) test [1],Effect on coagulation tests (all conducted tests) ([1]; any concentration tested),Effect on Long Term Potentiation (LTP) [2]
"Cc1ccc(S(=O)(=O)N[C@@H](CC(C(=O)O)C(=O)O)C(=O)N[C@@H](CCC(=O)O)C(=O)N[C@@H](C)C(=O)N[C@@H](CCCNC(=N)N)C(N)=O)cc1 [Pep6, Tos-{Gla}-EAR-NH2] (Tos-[Gla]EAR-NH2)",small but statistically significant effect,small but statistically significant effect,either no effect or clinical-irrelevant effect; also recorded: did not affect,–
"Tos-{Gla}-EAK-NH2 (Tos-[Gla]EAK-NH2; SMILES Cc1ccc(S(=O)(=O)N[C@@H](CC(C(=O)O)C(=O)O)C(=O)N[C@@H](CCC(=O)O)C(=O)N[C@@H](C)C(=O)N[C@@H](CCCCN)C(N)=O)cc1) [Pep5, N-terminal Tosyl, C-terminal amide, γ-carboxylated Glu]",–,–,–,enhanced
"Tos-{Gla}-EAK-{Gla}-IF-NH2 (Tos-[Gla]EAK[Gla]IF-NH2; SMILES CC[C@H](C)[C@H](NC(=O)[C@H](CC(C(=O)O)C(=O)O)NC(=O)[C@H](CCCCN)NC(=O)[C@H](C)NC(=O)[C@H](CCC(=O)O)NC(=O)[C@H](CC(C(=O)O)C(=O)O)NS(=O)(=O)c1ccc(C)cc1)C(=O)N[C@@H](Cc1ccccc1)C(N)=O) [Pep7, N-terminal Tosyl, C-terminal amide, γ-carboxylated Glu]",–,–,–,enhanced
"Tos-{Gla}-EAR-{Gla}-IF-NH2 (Tos-[Gla]EAR[Gla]IF-NH2; SMILES CC[C@H](C)[C@H](NC(=O)[C@H](CC(C(=O)O)C(=O)O)NC(=O)[C@H](CCCNC(=N)N)NC(=O)[C@H](C)NC(=O)[C@H](CCC(=O)O)NC(=O)[C@H](CC(C(=O)O)C(=O)O)NS(=O)(=O)c1ccc(C)cc1)C(=O)N[C@@H](Cc1ccccc1)C(N)=O) [Pep8, N-terminal Tosyl, C-terminal amide, γ-carboxylated Glu]",–,–,–,enhanced
